Tests used:
[1] = target: recombinant human HDAC6 (Homo sapiens (Human), UniProt Q9UBN7); assay: Enzymatic screening, HDAC6 inhibition (fluorogenic FdL_G substrate); format: biochemical
Method in brief: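 Enzyme was preincubated with compound (8 doses, triplicate, 1% DMSO) in 25 mM Tris-HCl pH 8, 130 mM NaCl, 0.05% Tween-20, 10% glycerol, with BSA. A FLUOR DE LYS-Green substrate was then added, and fluorescence was read after developer plus 2 μM TSA.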

[2] = Stability to Phase I metabolism in human S9 liver fraction; details: after 90 minutes, 37° C.
[3] = target: recombinant human HDAC1 (Homo sapiens (Human), UniProt Q13547); assay: Enzymatic screening, HDAC1 inhibition (fluorogenic FdL_G substrate); format: biochemical
Chain of recombinant human HDAC1 (Q13547 whole entry): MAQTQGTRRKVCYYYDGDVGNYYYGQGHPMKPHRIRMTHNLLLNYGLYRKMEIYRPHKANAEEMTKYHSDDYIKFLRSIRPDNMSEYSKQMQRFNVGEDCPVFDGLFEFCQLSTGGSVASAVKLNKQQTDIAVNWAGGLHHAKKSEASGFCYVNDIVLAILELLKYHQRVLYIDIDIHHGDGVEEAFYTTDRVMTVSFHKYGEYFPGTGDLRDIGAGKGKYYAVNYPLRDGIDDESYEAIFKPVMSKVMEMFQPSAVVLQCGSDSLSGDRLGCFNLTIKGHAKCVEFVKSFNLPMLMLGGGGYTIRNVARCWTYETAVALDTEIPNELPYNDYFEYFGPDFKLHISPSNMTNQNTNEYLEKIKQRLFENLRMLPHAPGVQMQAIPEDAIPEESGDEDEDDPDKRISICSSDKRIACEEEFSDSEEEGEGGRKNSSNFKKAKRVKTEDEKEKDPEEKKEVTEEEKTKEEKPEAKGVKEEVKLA
Method in brief: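 Recombinant human HDAC1 inhibition was measured fluorometrically using the FLUOR DE LYS-Green (FdL_G) substrate. Compounds at 8 doses (1% DMSO final) in Tris-HCl pH 8 buffer with NaCl, Tween-20 and glycerol were preincubated in triplicate with enzyme and 1 mg/mL BSA, then given substrate. Developer I plus 2 μM TSA was added, and fluorescence read after 25 minutes in the dark.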

[4] = Stability in rat plasma; details: after 4 hours, 37° C.
[5] = Stability in human plasma; details: after 4 hours, 37° C.
[6] = Stability to Phase I metabolism in rat S9 liver fraction; details: after 90 minutes, 37° C.
Method: Test compounds were incubated in rat and human liver S9 fraction at 37° C. up to 90 minutes in order to evaluate their stability to Phase I metabolism by hepatic enzymes. Each test compound was incubated at μM concentration (50 μM when the samples were analysed by UV/HPLC, 1 or 2 μM when the samples were analysed by LC-MS/MS) with S9 fraction (protein content 2 mg/m L) in 100 mM phosphate buffer (pH 7.4), 3.3 mM MgCl2 and 1.3 mM NADPH for 0, 10, 30, 60 and 90 minutes at 37° C. in a thermostated oscillating bath. The reaction was stopped placing samples on ice bath and adding acidified acetonitrile. After centrifugation (10 minutes at 14000 rpm) an aliquot of the supernatant was diluted with water, filtered with 0.45 μm regenerated cellulose syringe filters and injected in HPLC-UV or in LC-MS/MS. The percentage of the remaining amount at the various incubation times with respect to the initial amount were calculated.

Chain of recombinant human HDAC6 (Q9UBN7 whole entry): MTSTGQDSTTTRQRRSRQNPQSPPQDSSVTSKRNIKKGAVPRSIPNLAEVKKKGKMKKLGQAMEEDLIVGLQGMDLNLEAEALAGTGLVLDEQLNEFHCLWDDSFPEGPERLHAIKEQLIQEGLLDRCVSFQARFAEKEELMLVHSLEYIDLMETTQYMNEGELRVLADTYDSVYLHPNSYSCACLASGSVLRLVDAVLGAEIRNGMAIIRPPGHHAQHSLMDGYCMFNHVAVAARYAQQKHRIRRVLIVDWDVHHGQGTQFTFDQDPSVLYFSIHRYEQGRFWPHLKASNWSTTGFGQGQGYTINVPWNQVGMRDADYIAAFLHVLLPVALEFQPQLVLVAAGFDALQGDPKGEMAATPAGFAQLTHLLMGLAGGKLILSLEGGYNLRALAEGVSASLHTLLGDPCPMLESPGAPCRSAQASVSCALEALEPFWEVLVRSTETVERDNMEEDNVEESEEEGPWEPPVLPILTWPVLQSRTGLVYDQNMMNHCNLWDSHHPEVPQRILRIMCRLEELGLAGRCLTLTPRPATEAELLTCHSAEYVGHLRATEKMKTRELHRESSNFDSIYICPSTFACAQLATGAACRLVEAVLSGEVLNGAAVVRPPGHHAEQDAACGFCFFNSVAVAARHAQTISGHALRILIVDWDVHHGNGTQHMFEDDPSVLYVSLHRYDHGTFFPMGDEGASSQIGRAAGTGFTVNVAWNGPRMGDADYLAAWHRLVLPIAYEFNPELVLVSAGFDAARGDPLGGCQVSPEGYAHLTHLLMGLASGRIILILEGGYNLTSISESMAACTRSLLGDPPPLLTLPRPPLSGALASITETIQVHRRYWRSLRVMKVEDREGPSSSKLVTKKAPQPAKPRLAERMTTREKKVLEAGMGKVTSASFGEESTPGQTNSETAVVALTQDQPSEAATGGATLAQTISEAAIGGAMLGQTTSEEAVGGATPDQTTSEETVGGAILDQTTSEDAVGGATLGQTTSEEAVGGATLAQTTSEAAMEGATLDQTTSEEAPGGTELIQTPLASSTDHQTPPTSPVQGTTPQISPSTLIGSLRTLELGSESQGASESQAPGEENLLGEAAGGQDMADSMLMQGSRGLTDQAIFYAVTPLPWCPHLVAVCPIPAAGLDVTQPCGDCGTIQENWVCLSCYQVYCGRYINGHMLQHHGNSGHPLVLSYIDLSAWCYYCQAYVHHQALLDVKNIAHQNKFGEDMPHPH

Row | IC50 [1] | residual percentage in HUMAN S9 FRACTION [2] | IC50 [3] | residual percentage in RAT PLASMA [4] | residual percentage in HUMAN PLASMA [5] | residual percentage in RAT S9 FRACTION [6] | Structure (SMILES)
1 | 38 nM | 52% | > 200000 nM | 93% | 86% | 18% | CCNc1ccc(-c2nnn(Cc3ccc(-c4nnc(C(F)F)o4)cc3)n2)cn1 [compound 99, 5-(2-(4-(5-(difluoromethyl)-1,3,4-oxadiazol-2-yl)benzyl)-2H-tetrazol-5-yl)-N-ethylpyridin-2-amine]
2 | 45 nM | 96% | 66600 nM | 77% | 78% | 68% | FC(F)c1nnc(-c2ccc(Cn3nnc(-c4cccc(-c5nc6c([nH]5)CCNC6)c4)n3)cc2)o1 [compound 108, 2-(difluoromethyl)-5-(4-((5-(3-(4,5,6,7-tetrahydro-1H-imidazo[4,5-c]pyridin-2-yl)phenyl)-2H-tetrazol-2-yl)methyl)phenyl)-1,3,4-oxadiazole]
3 | 43 nM | 76% | > 200000 nM | 92% | 75% | 85% | FC(F)c1nnc(-c2ccc(Cn3nnc(-c4ccc5ccccc5n4)n3)cc2)o1 [compound 113, 2-(difluoromethyl)-5-(4-((5-(quinolin-2-yl)-2H-tetrazol-2-yl)methyl)phenyl)-1,3,4-oxadiazole]
4 | 49 nM | 30% | > 200000 nM | 83% | 96% | 13% | COc1ccc(-c2nnn(Cc3ccc(-c4nnc(C(F)F)o4)cc3)n2)cc1OC [compound 128, 2-(difluoromethyl)-5-(4-((5-(3,4-dimethoxyphenyl)-2H-tetrazol-2-yl)methyl)phenyl)-1,3,4-oxadiazole]
5 | 51 nM | 98% | > 200000 nM | 69% | 88% | 78% | CC(=O)Nc1cc(-c2nnn(Cc3ccc(-c4nnc(C(F)F)o4)cc3)n2)cnc1C [compound 133, N-(5-(2-(4-(5-(difluoromethyl)-1,3,4-oxadiazol-2-yl)benzyl)-2H-tetrazol-5-yl)-2-methylpyridin-3-yl)acetamide]
6 | 55 nM | 87% | > 200000 nM | 58% | 99% | 0% | CC(=O)c1cccc(-c2nnn(Cc3ccc(-c4nnc(C(F)F)o4)cc3)n2)c1 [compound 140, 1-(3-(2-(4-(5-(difluoromethyl)-1,3,4-oxadiazol-2-yl)benzyl)-2H-tetrazol-5-yl)phenyl)ethan-1-one]
7 | 65 nM | 83% | > 200000 nM | 97% | 98% | 79% | Nc1ccc(-c2cn(Cc3ccc(-c4nnc(C(F)F)o4)cc3)cn2)cn1 [compound 151, 5-(1-(4-(5-(difluoromethyl)-1,3,4-oxadiazol-2-yl)benzyl)-1H-imidazol-4-yl)pyridin-2-amine]

The remaining lines, values behind:

Row | Structure (SMILES) | IC50 [1] | residual percentage in HUMAN S9 FRACTION [2] | IC50 [3] | residual percentage in RAT PLASMA [4] | residual percentage in HUMAN PLASMA [5] | residual percentage in RAT S9 FRACTION [6]
8 | O=C1NCc2ccc(-c3nnn(Cc4ccc(-c5nnc(C(F)F)o5)c(F)c4)n3)cc21 [compound 97, 6-(2-(4-(5-(difluoromethyl)-1,3,4-oxadiazol-2-yl)-3-fluorobenzyl)-2H-tetrazol-5-yl)isoindolin-1-one] | 38 nM | 84% | > 200000 nM | 96% | 76% | 95%
9 | Cc1ncccc1-c1cn(Cc2c(F)cc(-c3nnc(C(F)F)o3)cc2F)nn1 [compound 105, 2-(3,5-difluoro-4-((4-(2-methylpyridin-3-yl)-1H-1,2,3-triazol-1-yl)methyl)phenyl)-5-(difluoromethyl)-1,3,4-oxadiazole] | 41 nM | 99% | > 200000 nM | 81% | 84% | 71%
10 | O=C1NCc2ccc(-c3cn(Cc4ccc(-c5nnc(C(F)F)o5)cc4)nn3)cc21 [compound 109, 6-(1-(4-(5-(difluoromethyl)-1,3,4-oxadiazol-2-yl)benzyl)-1H-1,2,3-triazol-4-yl)isoindolin-1-one] | 42 nM | 82% | > 200000 nM | 78% | 89% | 87%
11 | Fc1cc(-c2nnc(C(F)F)o2)cc(F)c1Cn1cc(-c2cccs2)nn1 [compound 122, 2-(3,5-difluoro-4-((4-(thiophen-2-yl)-1H-1,2,3-triazol-1-yl)methyl)phenyl)-5-(difluoromethyl)-1,3,4-oxadiazole] | 46 nM | 78% | > 200000 nM | 84% | 88% | 10%
12 | COc1ncccc1-c1cn(Cc2ccc(-c3nnc(C(F)F)o3)cc2)nn1 [compound 131, 2-(difluoromethyl)-5-(4-((4-(2-methoxypyridin-3-yl)-1H-1,2,3-triazol-1-yl)methyl)phenyl)-1,3,4-oxadiazole] | 51 nM | 83% | > 200000 nM | 82% | 92% | 58%
13 | CCC[C@H](c1ccc(-c2nnc(C(F)F)o2)cc1)n1cc(-c2ccc(N)nc2)nn1 [compound 143, (R)-5-(1-(1-(4-(5-(difluoromethyl)-1,3,4-oxadiazol-2-yl)phenyl)butyl)-1H-1,2,3-triazol-4-yl)pyridin-2-amine] | 60 nM | 89% | > 200000 nM | 80% | 60% | 71%
14 | CC(c1ccc(-c2nnc(C(F)F)o2)cc1F)n1cc(-c2ccc(N)nc2)nn1 (stereo not drawn) [compound 185, 5-(1-(1-(4-(5-(difluoromethyl)-1,3,4-oxadiazol-2-yl)-2-fluorophenyl)ethyl)-1H-1,2,3-triazol-4-yl)pyridin-2-amine] | 96 nM | 86% | > 200000 nM | 62% | 97% | 69%
15 | CC(c1ccc(-c2nnc(C(F)F)o2)c(F)c1)n1cc(-c2ccc(N)nc2)nn1 (stereo not drawn) [compound 186, 5-(1-(1-(4-(5-(difluoromethyl)-1,3,4-oxadiazol-2-yl)-3-fluorophenyl)ethyl)-1H-1,2,3-triazol-4-yl)pyridin-2-amine] | 98 nM | 88% | > 200000 nM | 86% | 94% | 90%

Reference: patent publication US20230286970A1, “NOVEL OXADIAZOLE-BASED SELECTIVE HDAC6 INHIBITORS” (ITALFARMACO S.P.A., priority 2020, published 2023)
